Source: patent EP4800016A1, “METTL3 INHIBITOR” (Hangzhou Bangshun Pharmaceutical Co., Ltd., priority 2023, dated 2025)

Assays:
METTL3/14 = target: T1, METTL3/14 (Homo sapiens, UniProt Q86U44); assay: METTL3/14 methyltransferase activity assay (HTRF); type: biochemical; conditions: 10 concentrations, 3-fold dilution from 10 µM
T1 construct: purchased active motif 31570
Protocol: The final initial concentration of the compound was 10 µM, with 3-fold serial dilution to give a total of 10 concentrations. 100 nL of the compound was transferred to a 384-well plate and centrifuged at 1000 RPM. 2.5 µL of METTL3/14 (active motif, Cat No. 31570) was added to the test wells and incubated at 25°C for 10 min. 2.5 µL of METTL3-Biotin & SAM (GenScript) was added to the test wells andincubated at 25°C for 60 min. 2.5 µL of YTHDF1 (active motif, Cat No. 31608) was added to the test wells and centrifuged at 1000 RPM. 2.5 µL of Streptavidin-Tb (Perkin Elmer Cat No. 61SATLB) & Flag-mede (Perkin Elmer Cat No. 61FG2DLA) was added to the test wells and centrifuged at 1000 RPM. Incubated at 25°C for 60 min. HTRF was measured using a Plate reader. The results of each compound are shown in Table 1, where A+indicates <10nM, A indicates 10-100nM, B indicates 100-1000nM, and C indicates >1000nM.

[1] = Rat pharmacokinetic test, intravenous injection; type: in vivo; conditions: male, SD, plasma, rats, 2 mg/kg, average of 3 rats
Protocol: 3.1 Experimental Animals: Male SD rats, weighing 190-230 g, 3 rats per compound 3.2 Experimental Design: All animals were fasted overnight (10-14 hours) the day before admin istration and fed 4 hours after admin istration. For intravenous injection, the drug vehicle was 5% DMA + 5% Solutol + 90% Saline (DMA: dimethylacetamide; Solutol: polyethyleneglycol-15-hydroxystearate; Saline: normal saline), with a dosage of 2 mg/kg and an admin istration concentration of 1 mg/mL. Blood samples were collected via the jugular vein at 5 min, 15 min, 30 min, 1 h, 2 h, 4 h, 6 h, 8 h, and 24 h after admin istration. Approximately 0.25 mL of each sample was collected, anticoagulated with EDTA-K2, placed on ice after collection, and centrifuged to separate plasma within 1 hour (6000 g, 3 min, 2-8°C). Plasma samples were stored in a - 80°Crefrigerator before analys is.
3.3 Result Analys is:Collected samples were detected using LC-MS/MS method. Pharmacokinetic parameters were calculated from blood drug concentration data at different time points using Phoenix WinNonlin 8.2.0 to obtain the average values of in vivo clearance (CL) and AUC0-t. Table 3 CL and AUC of test compounds after intravenous injection in rats

Kasumi-1 cells = assay: Kasumi-1 cell inhibitory activity (CellTiter-Glo, 5 days); type: cell-based; conditions: Homo sapiens, 120 h, 5 days incubation, CellTiter-Glo luminescence
Protocol: Test compounds were dissolved in DMSO to prep are a 250×final concentration solution. The initial concentration was 10 µM with 3-fold dilution, resulting in a total of ten concentration points. 4 µL of the compound solution was added to 96 µL of cell culture medium to dilute it to 10×the final concentration. On the first day, Kasumi-1 cells (purchased from Precedo) were suspended in cell culture medium at the desired density, 90 µL of the cell suspension was added to a 96-well plate, and 10 µL of 10×compound solution was added for incubation, with a final DMSO concentration of 0.4% in each well. Incubated at 37 °C, 5% CO2 for 5 days. Before measurement after 5 days, the test plate was placed at room temperature, 50 µL of CellTiter-Glo® reagent (purchased from Promega, Cat. No. G7573) was added, mixed on a shaker for 2 minutes to lyse the cells, and incubated at room temperature for 10 minutes to stabilize the […] signal. Luminescence values were recorded using Paradigm, and the response-concentration curve was fitted with Graphpad Pr ism 8.0 to calculate IC50values. The results of each compound are shown in Table2, where A indicates <100nM, B indicates 100-1000nM, and C indicates >1000nM. [formula]

T1 sequence (Q86U44 whole entry): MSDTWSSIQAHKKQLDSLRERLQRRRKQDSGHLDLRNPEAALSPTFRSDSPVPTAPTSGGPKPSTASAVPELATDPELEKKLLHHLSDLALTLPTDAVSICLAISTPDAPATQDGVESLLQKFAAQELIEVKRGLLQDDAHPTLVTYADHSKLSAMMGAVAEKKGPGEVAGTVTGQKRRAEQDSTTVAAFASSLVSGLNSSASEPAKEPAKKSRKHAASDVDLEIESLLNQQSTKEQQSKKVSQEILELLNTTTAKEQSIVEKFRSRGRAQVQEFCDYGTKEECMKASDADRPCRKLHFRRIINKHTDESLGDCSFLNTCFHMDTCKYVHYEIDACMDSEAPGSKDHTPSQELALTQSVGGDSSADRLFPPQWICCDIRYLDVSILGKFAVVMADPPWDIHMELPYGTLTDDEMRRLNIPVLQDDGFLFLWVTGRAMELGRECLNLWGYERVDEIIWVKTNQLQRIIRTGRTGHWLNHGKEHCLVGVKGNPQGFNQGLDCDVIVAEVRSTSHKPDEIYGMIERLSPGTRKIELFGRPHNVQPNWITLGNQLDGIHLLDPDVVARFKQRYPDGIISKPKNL
T1 sequence (Q9HCE5 whole entry partner): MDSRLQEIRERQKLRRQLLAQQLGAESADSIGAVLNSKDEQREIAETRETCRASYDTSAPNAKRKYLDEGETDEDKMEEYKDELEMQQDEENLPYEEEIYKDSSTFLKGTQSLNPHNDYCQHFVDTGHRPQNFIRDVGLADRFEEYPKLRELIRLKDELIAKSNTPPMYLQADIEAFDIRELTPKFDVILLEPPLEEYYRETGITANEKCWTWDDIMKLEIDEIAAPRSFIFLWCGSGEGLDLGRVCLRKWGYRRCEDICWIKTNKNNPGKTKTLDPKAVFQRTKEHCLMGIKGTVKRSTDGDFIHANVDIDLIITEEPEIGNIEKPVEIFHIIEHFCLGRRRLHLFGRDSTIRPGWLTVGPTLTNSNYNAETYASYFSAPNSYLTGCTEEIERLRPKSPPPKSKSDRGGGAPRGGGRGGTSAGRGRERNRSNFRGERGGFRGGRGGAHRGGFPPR

Row | Compound | IC50 (METTL3/14) | AUC(0-t) [1] | clearance [1] | IC50 (Kasumi-1 cells)
1 | [2H]C([2H])(NCc1cc2cc(F)c(CNC(=O)c3cc(=O)n4cc5c(cc4n3)OCO5)cc2[nH]1)C12CC(F)(C1)C2 [Example 89, N-((5-Fluoro-2-((((3-fluorobicyclo[1.1.1]pentan-1-yl)methyl-d2)amino)methyl)-1H-indol-6-yl)methyl)-8-oxo-8H-[1,3]dioxolo[2',3':4,5]pyrido[1,2-a]pyrimidine-6-carboxamide] | < 0.01 µM | 1210 ng·h/mL | 28.1 mL/min/kg | < 0.1 µM
2 | O=C(NCc1ccc2cc(CNCC3CC(F)(F)C3)[nH]c2c1)c1cc(=O)n2cc3c(cc2n1)OCCO3 [Example 24, N-((2-((((3,3-Difluorocyclobutyl)methyl)amino)methyl)-1H-indol-6-yl)methyl)-9-oxo-2,3-dihydro-9H-[1,4]dioxino[2',3':4,5]pyrido[1,2-a]pyrimidine-7-carboxamide] | < 0.01 µM | 2180 ng·h/mL | 15.3 mL/min/kg | 0.1 to 1 µM
3 | [2H]C([2H])(NCc1cc2ccc(CNC(=O)c3cc(=O)n4cc5c(cc4n3)OCO5)cc2[nH]1)C1CCC1 [Example 71, N-((2-(((Cyclobutylmethyl-d2)amino)methyl)-1H-indol-6-yl)methyl)-8-oxo-8H-[1,3]dioxolo[4',5':4,5]pyrido[1,2-a]pyrimidine-6-carboxamide] | < 0.01 µM |  |  | < 0.1 µM
4 | O=C(NCc1cc2[nH]c(CNCC34CC(CO3)C4)cc2cc1F)c1cc(=O)n2cc3c(cc2n1)OCO3 [Example 87, N-((2-((((2-Oxabicyclo[2.1.1]hexan-1-yl)methyl)amino)methyl)-5-fluoro-1H-indol-6-yl)methyl)-8-oxo-8H-[1,3]dioxolo[2',3':4,5]pyrido[1,2-a]pyrimidine-6-carboxamide] | 0.01 to 0.1 µM |  |  | 0.1 to 1 µM
5 | O=C(NCc1cc2[nH]c(CNCC3CCC3)cc2cc1F)c1cc(=O)n2cc3c(cc2n1)OCO3 [Example 73, N-((2-(((Cyclobutylmethyl)amino)methyl)-5-fluoro-1H-indol-6-yl)methyl)-8-oxo-8H-[1,3]dioxolo[4',5':4,5]pyrido[1,2-a]pyrimidine-6-carboxamide] | < 0.01 µM | 1440 ng·h/mL | 23 mL/min/kg | 0.1 to 1 µM
6 | O=C(NCc1ccc2cc(CNCC34CC(CO3)C4)[nH]c2c1)c1cc(=O)n2cc3c(cc2n1)OCO3 [Example 84, N-((2-((((2-Oxabicyclo[2.1.1]hexan-1-yl)methyl)amino)methyl)-1H-indol-6-yl)methyl)-8-oxo-8H-[1,3]dioxolo[2',3':4,5]pyrido[1,2-a]pyrimidine-6-carboxamide] | < 0.01 µM |  |  | 0.1 to 1 µM
7 | [2H]C([2H])(NCc1cc2cc(F)c(CNC(=O)c3cc(=O)n4cc5c(cc4n3)OCCO5)cc2[nH]1)C12CC(F)(C1)C2 [Example 94, N-((5-fluoro-2-((((3-fluorobicyclo[1.1.1]pentan-1-yl)methyl-d2)amino)methyl)-1H-indol-6-yl)methyl)-9-oxo-2,3-dihydro-9H-[1,4]dioxino[2',3':4,5]pyrido[1,2-a]pyrimidine-7-carboxamide] | < 0.01 µM | 1120 ng·h/mL | 28.5 mL/min/kg | < 0.1 µM
8 | [2H]C([2H])(NCc1cc2ccc(CNC(=O)c3cc(=O)n4cc5c(cc4n3)OCCO5)cc2[nH]1)C12CC(F)(C1)C2 [Example 95, N-((2-((((3-fluorobicyclo[1.1.1]pentan-1-yl)methyl-d2)amino)methyl)-1H-indol-6-yl)methyl)-9-oxo-2,3-dihydro-9H-[1,4]dioxino[2',3':4,5]pyrido[1,2-a]pyrimidine-7-carboxamide] | < 0.01 µM |  |  | < 0.1 µM
9 | [2H]C([2H])(NCc1cc2ccc(CNC(=O)c3cc(=O)n4cc5c(cc4n3)OCO5)cc2[nH]1)C12CC(CO1)C2 [Example 92, N-((2-((((2-Oxabicyclo[2.1.1]hexan-1-yl)methyl-d2)amino)methyl)-1H-indol-6-yl)methyl)-8-oxo-8H-[1,3]dioxolo[4',5':4,5]pyrido[1,2-a]pyrimidine-6-carboxamide] | 0.01 to 0.1 µM |  |  | 0.1 to 1 µM
10 | O=C(NCc1ccc2cc(CNCC3CC(F)(F)C3)[nH]c2c1)c1cc(=O)n2cc3c(cc2n1)OCO3 [Example 26, N-((2-((((3,3-Difluorocyclobutyl)methyl)amino)methyl)-1H-indol-6-yl)methyl)-8-oxo-8H-[1,3]dioxolo[4',5':4,5]pyrido[1,2-a]pyrimidine-6-carboxamide] | 0.01 to 0.1 µM |  |  | 0.1 to 1 µM
11 | O=C(NCc1ccc2cc(CNCC3CCC3)[nH]c2c1)c1cn2ncc3c2c(n1)NCCC3 [Example 45, N-((2-(((Cyclobutylmethyl)amino)methyl)-1H-indol-6-yl)methyl)-6,7,8,9-tetrahydro-2,2a,5,6-tetraazabenzo[cd]azulene-4-carboxamide] | 0.01 to 0.1 µM |  |  | 0.1 to 1 µM
12 | [2H]C([2H])(NCc1cc2cc(F)c(CNC(=O)c3cc(=O)n4cc5c(cc4n3)OCO5)cc2[nH]1)C1CCC1 [Example 88, N-((2-(((Cyclobutylmethyl-d2)amino)methyl)-5-fluoro-1H-indol-6-yl)methyl)-8-oxo-8H-[1,3]dioxolo[2',3':4,5]pyrido[1,2-a]pyrimidine-6-carboxamide] | < 0.01 µM | 1710 ng·h/mL | 19.1 mL/min/kg | < 0.1 µM
13 | O=C(NCc1ccc2cc(CNCC3CCC3)[nH]c2c1)c1cc(=O)n2cc3c(cc2n1)OCO3 [Example 25, N-((2-(((Cyclobutylmethyl)amino)methyl)-1H-indol-6-yl)methyl)-8-oxo-8H-[1,3]dioxolo[4',5':4,5]pyrido[1,2-a]pyrimidine-6-carboxamide] | < 0.01 µM | 1460 ng·h/mL | 22.7 mL/min/kg | 0.1 to 1 µM
14 | O=C(NCc1cc2[nH]c(CNCC3CCC3)cc2s1)c1cc(=O)n2cc3c(cc2n1)OCO3 [Example 32, N-((5-(((Cyclobutylmethyl)amino)methyl)-4H-thieno[3,2-b]pyrrol-2-yl)methyl)-8-oxo-8H-[1,3]dioxolo[4',5':4,5]pyrido[1,2-a]pyrimidine-6-carboxamide] | 0.01 to 0.1 µM |  |  | 0.1 to 1 µM
15 | [2H]C([2H])(NCc1cc2ccc(CNC(=O)c3cc(=O)n4cc5c(cc4n3)OCO5)cc2[nH]1)C12CC(F)(C1)C2 [Example 72, N-((2-((((3-Fluorobicyclo[1.1.1]pentan-1-yl)methyl-d2)amino)methyl)-1H-indol-6-yl)methyl)-8-oxo-8H-[1,3]dioxolo[4',5':4,5]pyrido[1,2-a]pyrimidine-6-carboxamide] | < 0.01 µM |  |  | < 0.1 µM
16 | O=C(NCc1cn2cc(CNCC3CCC3)ccc2n1)c1cc(=O)n2cc3c(cc2n1)OCO3 [Example 41, N-((6-(((cyclobutylmethyl)amino)methyl)imidazo[1,2-a]pyridin-2-yl)methyl)-8-oxo-8H-[1,3]dioxolo[4',5':4,5]pyrido[1,2-a]pyrimidine-6-carboxamide] | < 0.01 µM |  |  | 0.1 to 1 µM
17 | CC1(CNCc2cc3ccc(CNC(=O)c4cc(=O)n5cc6c(cc5n4)OCO6)cc3[nH]2)CC(F)(F)C1 [Example 53, N-((2-((((3,3-Difluoro-1-methylcyclobutyl)methyl)amino)methyl)-1H-indol-6-yl)methyl)-8-oxo-8H-[1,3]dioxolo[4',5':4,5]pyrido[1,2-a]pyrimidine-6-carboxamide] | < 0.01 µM |  |  | 0.1 to 1 µM
